Test results published in patent publication US20210254000A1, “PROCESS FOR PRODUCING A T CELL COMPOSITION” (Juno Therapeutics, Inc., priority 2017, published 2021).

Key:
anti-CD19 CAR-T cells = test: Serial stimulation assay with irradiated K562-CD19 target cells; type: cell-based, human; settings: four rounds of restimulation with K562-CD19 cells; relative to media only
Description: Separate compositions of CD4+ and CD8+ cells were isolated from three human donors, activated and transduced with a viral vector encoding an anti-CD19 CAR substantially as described in Example 2. After transduction, the CD4+ and CD8+ T cells derived from each donor were separately incubated for 8 days in the presence of a mTOR kinase inhibitor to expand T cells substantially as described in Example 2, except in the presence of 200 nM PI-103, 1 μM Compound 63, or with DMSO vehicle or media only controls. CD4+ and CD8+ T cells from each donor were then separately harvested, formulated, and cryofrozen. […] Functional activities of the generated anti-CD19 CAR-T cell compositions were assessed.
The ability of cells to expand ex vivo following repeated stimulations in some aspects can indicate capacity of CAR-T cells to persist (e.g., following initial activation) and/or is indicative of function in vivo (Zhao et al. (2015) Cancer Cell, 28:415-28). […] Every 3-4 days, T cells were harvested, counted, and restimulated with new target cells using the same culture conditions after resetting cell number to initial seeding density for each round. […] The population doublings (FIG. 7A) and area under the curves (AUC) as a function of population doublings over time relative to AUC of cells expanded with media only (FIG. 7B) were determined.

[1] = test system: engineered CD8+ and CD4+ T cells; test: T cell expansion of anti-CD19 CAR-transduced CD4+ and CD8+ T cells incubated with mTOR kinase inhibitor; type: cell-based; settings: human
Description: Separate compositions of CD4+ and CD8+ cells were isolated from human leukapheresis samples by immunoaffinity-based enrichment and cryofrozen. The CD4+ and CD8+ cells of the compositions were subsequently thawed and activated by separately culturing the cells under stimulating conditions in the presence of anti-CD3/anti-CD28 magnetic beads and recombinant IL-2, IL-7 and/or IL-15 for approximately 20 hours. Cells were then transduced with a viral vector encoding an anti-CD19 chimeric antigen receptor (CAR). After transduction, the CD4+ and CD8+ cells were separately incubated in the presence of an mTOR kinase inhibitor, either Compound 155, Compound 63, or Compound 246, at various concentrations. For controls, cells were incubated with media only, DMSO vehicle, or with 200 nM PI-103. Incubation was carried out at 37° C. for approximately 8 days post-thaw with one media change, at which point the compounds were re-added to the culture media at the same concentration.
The percent of CD8+ and CD4+ T cells at the end of the process as compared to the amount of cells seeded for culture following the transduction is shown in FIG. 2. The cutoff for selecting a tolerated dose was set at 70% of the mean values of the media and DMSO controls.

CC(C)c1ccccc1-n1c(=O)[nH]c2c(C(N)=O)nc(-c3cccc(O)c3)nc21 [Compound 63, 2-(3-Hydroxyphenyl)-9-(2-isopropylphenyl)-8-oxo-8,9-dihydro-7H-purine-6-carboxamide]
mean AUC of population doublings compared to T cells expanded with PI-103 or DMSO vehicle (anti-CD19 CAR-T cells): larger mean AUC
highest tolerated dose resulting in similar CD8 and CD4 T cell expansion as vehicle control [1]: 1 µM
